{
  "source": "paper PMC2362861",
  "about": "“Potent interaction of flavopiridol with MRP1” (British Journal of Cancer, 1999)",
  "key": {"MRP1 ATPase activity": {"molecular_target": "T1, MRP1 ATPase activity (Homo sapiens, UniProt P33527)", "T1 construct": "plasma membrane vesicles prepared from the MRP1 overexpressing cell line GLC4/ADR; endogenous in cells; host or cells: GLC4/ADR (adriamycin-selected human small-cell lung cancer subline); plasma membrane vesicles", "T1 sequence (P33527 whole entry)": "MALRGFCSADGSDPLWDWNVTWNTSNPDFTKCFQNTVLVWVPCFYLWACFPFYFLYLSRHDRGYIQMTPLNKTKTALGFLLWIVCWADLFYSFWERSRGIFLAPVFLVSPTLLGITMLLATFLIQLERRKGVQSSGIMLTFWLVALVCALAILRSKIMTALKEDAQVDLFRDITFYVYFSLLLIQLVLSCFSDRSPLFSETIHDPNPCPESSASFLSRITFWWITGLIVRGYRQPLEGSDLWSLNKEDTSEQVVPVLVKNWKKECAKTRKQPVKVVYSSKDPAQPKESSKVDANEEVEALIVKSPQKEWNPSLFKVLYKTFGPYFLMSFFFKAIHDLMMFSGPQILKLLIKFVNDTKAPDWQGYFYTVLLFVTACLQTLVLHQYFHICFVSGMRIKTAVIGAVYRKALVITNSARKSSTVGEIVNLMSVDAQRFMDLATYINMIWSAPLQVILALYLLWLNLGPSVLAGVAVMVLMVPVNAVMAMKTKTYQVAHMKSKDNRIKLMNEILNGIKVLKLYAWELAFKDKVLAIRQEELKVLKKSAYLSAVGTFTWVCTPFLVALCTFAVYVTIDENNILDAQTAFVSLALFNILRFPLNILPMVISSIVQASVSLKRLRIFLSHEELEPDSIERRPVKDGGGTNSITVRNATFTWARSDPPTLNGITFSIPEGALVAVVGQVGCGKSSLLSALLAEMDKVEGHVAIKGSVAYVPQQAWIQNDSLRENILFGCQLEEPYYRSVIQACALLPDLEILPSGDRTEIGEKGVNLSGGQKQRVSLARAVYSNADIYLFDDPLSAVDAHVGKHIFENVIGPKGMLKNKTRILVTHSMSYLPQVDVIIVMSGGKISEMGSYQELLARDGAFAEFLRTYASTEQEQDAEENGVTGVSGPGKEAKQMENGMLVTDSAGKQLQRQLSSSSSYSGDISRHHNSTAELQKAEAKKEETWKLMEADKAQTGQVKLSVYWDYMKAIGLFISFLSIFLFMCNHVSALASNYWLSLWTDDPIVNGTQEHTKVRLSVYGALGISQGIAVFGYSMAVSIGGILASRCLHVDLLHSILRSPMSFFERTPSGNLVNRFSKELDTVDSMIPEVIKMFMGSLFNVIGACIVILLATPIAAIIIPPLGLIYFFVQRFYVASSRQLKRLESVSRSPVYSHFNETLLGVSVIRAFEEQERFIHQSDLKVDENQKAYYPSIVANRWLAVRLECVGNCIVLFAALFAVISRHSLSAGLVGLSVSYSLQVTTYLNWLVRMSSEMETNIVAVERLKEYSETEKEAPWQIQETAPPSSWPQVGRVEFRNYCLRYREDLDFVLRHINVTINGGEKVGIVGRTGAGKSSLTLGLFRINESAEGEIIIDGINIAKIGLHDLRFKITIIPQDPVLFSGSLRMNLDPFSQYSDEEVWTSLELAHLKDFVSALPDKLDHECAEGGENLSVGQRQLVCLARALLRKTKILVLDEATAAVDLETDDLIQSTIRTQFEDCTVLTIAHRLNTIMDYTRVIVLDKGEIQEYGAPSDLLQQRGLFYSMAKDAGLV", "test": "ATPase activity of GLC4/ADR plasma membranes (colourimetric inorganic phosphate)", "assay_type": "biochemical", "from_the_text": "One form of cellular resistance, directed against a wide spectrum of natural agents, is referred to as multidrug resistance (MDR). […] The ATP-dependent transport of anticancer drugs out of tumour cells that express MDR proteins may at least theoretically lead to impaired treatment outcome of patients. […] 1-Chloro-2,4-dinitrobenzene (CDNB) was from Sigma (St Louis, MO, USA). […] The isoflavonoid genis- tein was from ICN Biomedicals (Zoetermeer, The Netherlands). […] The (iso)flavonoids were dissolved as a stock solution of 40 mM in dimethyl sulphoxide (DMSO; Across Chimica, Belgium) and stored at -20C. Before experiments, 1:1 dilutions were made in ethanol, followed by a dilution in ethanol/water (1: 3; v/v) to the appropriate concentrations. The maximal concentration of DMSO and ethanol, which was also added to the controls, was 0.5% (v/v). Membrane filters OE67 were from Schleicher and Schuell (Dassel, Germany). Doxorubicin hydrochloride was from Laboratoire Roger Bellon (France). […] S1(MRP1) cells were cultured in the presence of G418 until 2-10 days before experiments. […] Cells were harvested by centrifugation (275 g, 5 min) and washed twice in phosphate-buffered saline. Subsequently, the cells were incubated in 100 mM potassium chloride (KCl), 5 mM magnesium chloride (MgCl2 ), 1 mM phenylmethylsulphonyl fluoride and 50 mM HEPES-KOH (pH 7.4) for 1 h at 0C, in order to allow the cells to swell. Then the cells were ultrasonicated at 20% of the maximum power of an MSE sonicator (Soniprep 150) for three bursts of 15 s. The suspension was centrifuged at 1500 g for 10 min. […] After centrifugation at 100 000 g for 60 min the interface was removed and washed in 100 mM KC1-50 mM HEPES-5 mM MgCl2 buffer (pH 7.4). The final membrane preparations were stored at -80C at a protein concentration of ~ 4 mg ml-1 . […] Vesicles were incubated in KCl-HEPES buffer (pH 7.4) at 37C (protein concentration ~ 0.25 mg ml-1 ), in the presence of 10 mM MgCl2 with or without 1 mM ATP and tritium-labelled DNP-SG. The reaction was stopped by adding ice-cold KCl-HEPES buffer. After rapid filtration, the filters were washed twice with KCl-HEPES buffer. The radioactivity on the filters was measured by liquid scintillation counting. […] Plasma membranes were incubated for 1 h in KCl-HEPES buffer (pH 7.4) at 37C, in the presence of 1 mM EGTA, 1 mM sodium azide and 0.1 mM ouabain, with or without 1 mM ATP. […] Plasma membranes from GLC4 cells (black bars) and GLC4 /ADR cells (white bars) were incubated with 10 nM DNP-SG in the absence or presence of the MIB6 antibody (MIB6) (10 g ml-1 ) or an MRP1 control antibody (10 g ml-1 ). […] In short, anti-MRP1 antibodies were tested for their capacity to inhibit DNP-SG transport into GLC4 /ADR inside-out plasma membrane vesicles."}, "GLC4 cells": {"system": "GLC4 cells", "test": "Steady-state cellular [3H]daunorubicin accumulation in GLC4 cells", "assay_type": "cell-based, human", "conditions": "GLC4; (iso)flavonoid 50 µM (μM); 0.5 M DNR, 75 min"}, "GLC4/ADR cells": {"system": "GLC4/ADR cells", "test": "Steady-state cellular [3H]daunorubicin accumulation in GLC4/ADR cells", "assay_type": "cell-based, human"}, "GLC4": {"system": "GLC4", "test": "Growth inhibition assay, GLC4", "assay_type": "cell-based, human", "conditions": "for IC50: Homo sapiens"}, "GLC4/ADR": {"system": "GLC4/ADR", "test": "Growth inhibition assay, GLC4/ADR", "assay_type": "cell-based, human", "conditions": "for IC50: Homo sapiens, GLC-4/ADR"}, "SW1573": {"system": "SW1573", "test": "Growth inhibition assay, SW1573", "assay_type": "cell-based", "conditions": "Homo sapiens, SW1573, 72 h, read-out: IC50 value"}, "S1(MRP)": {"system": "S1(MRP)", "test": "Growth inhibition assay, S1(MRP)", "assay_type": "cell-based, human"}, "S1(1.1)": {"system": "S1(1.1)", "test": "Growth inhibition assay, S1(1.1)", "assay_type": "cell-based", "conditions": "Homo sapiens, 72 h, read-out: IC50 value"}, "cyclin-dependent kinases": {"system": "cyclin-dependent kinases", "parameters": "method as in Losiewicz et al, 1996", "conditions": "ref Losiewicz et al, 1996; cited from earlier work"}, "[1]": {"conditions": "during continuous infusion, ref Senderowicz et al, 1998, Stinson et al; cited from earlier work"}},
  "note": "Read-outs that look alike come from different tables or passages of the source.",
  "data": [
    {"smiles": "CN1CC[C@H](c2c(O)cc(O)c3c(=O)cc(-c4ccccc4Cl)oc23)[C@H](O)C1", "note": "[Flavopiridol, (-)cis-5,7-dihydroxy-2-(2-chlorophenyl)-8[4-(3-hydroxy-1-methyl)-piperidinyl]-4H-benzopyran-4-one]", "values": [
      {"measurement": "Concentrations at which ATPase activity of GLC4/ADR membranes was significantly induced", "setting": "MRP1 ATPase activity; GLC4/ADR membranes, lowest effective concentration and higher", "result": "≥ 1", "unit": "µM"},
      {"measurement": "Effect of GSH on (iso)flavonoid-induced MRP1 ATPase activity", "setting": "MRP1 ATPase activity; GSH 0.5 mM or 5 mM, data not shown", "result": "no synergistic stimulation"},
      {"measurement": "Accumulation of daunorubicin, mean percentages of control (set at 100%)", "setting": "GLC4 cells", "result": 104, "unit": "%"},
      {"measurement": "Effect on accumulation of DNR in GLC4/ADR cells", "setting": "GLC4/ADR cells; 50 µM (μM)", "result": "increased the accumulation of DNR"},
      {"measurement": "Lowest concentration tested, giving a significant increase of DNR accumulation", "setting": "GLC4/ADR cells; GLC4/ADR", "result": 100, "unit": "nM"},
      {"measurement": "Difference of DNR accumulation from control (P < 0.05)", "setting": "GLC4/ADR cells; GLC4/ADR, all tested flavopiridol concentrations (0.1, 1, 5), Figure 6", "result": "gave a significant difference"},
      {"measurement": "Concentrations at which daunorubicin accumulation is affected", "setting": "GLC4/ADR cells; GLC4/ADR, only tested compound active in this range", "result": "below 1 μM"},
      {"measurement": "IC50", "setting": "GLC4; GLC4, 72 h, read-out: IC50 value", "result": 45, "unit": "nM"},
      {"measurement": "IC50", "setting": "GLC4; GLC4, read-out: IC50 value", "result": "> 1000", "unit": "nM"},
      {"measurement": "IC50", "setting": "GLC4; GLC4, read-out: IC50 values", "result": "> 1000", "unit": "nM"},
      {"measurement": "Growth inhibitory potency compared to genistein and kaempferol", "setting": "GLC4; Table 3, all cell lines", "result": "about 100 fold"},
      {"measurement": "Resistance compared to GLC4", "setting": "GLC4/ADR; GLC4/ADR vs GLC4", "result": 2.8, "unit": "times"},
      {"measurement": "IC50", "setting": "GLC4/ADR; 72 h, read-out: IC50 value", "result": 128, "unit": "nM"},
      {"measurement": "IC50", "setting": "GLC4/ADR; read-out: IC50 value", "result": "> 1000", "unit": "nM"},
      {"measurement": "IC50", "setting": "GLC4/ADR; read-out: IC50 values", "result": "> 1000", "unit": "nM"},
      {"measurement": "IC50", "setting": "SW1573", "result": 85, "unit": "nM"},
      {"measurement": "IC50", "setting": "S1(MRP); Homo sapiens, S1(MRP), 72 h, read-out: IC50 value", "result": 130, "unit": "nM"},
      {"measurement": "Resistance compared to SW1573", "setting": "S1(MRP); S1(MRP) vs SW1573", "result": 1.5, "unit": "times"},
      {"measurement": "IC50", "setting": "S1(1.1)", "result": 93, "unit": "nM"},
      {"measurement": "Potency as inhibitor of cyclin-dependent kinases compared to genistein and quercetin", "setting": "cyclin-dependent kinases", "result": 250, "unit": "fold"},
      {"measurement": "Steady-state plasma concentrations in humans", "setting": "[1]", "result": "200 to 300", "unit": "nM"}
    ]}
  ]
}
